Tests used:
CCRF-CEM = test: Cytotoxicity against human CEM cells assessed as viable cells after 72 hrs by calcein AM assay; type: functional, cell-based
MCF7 = test: Cytotoxicity against human MCF7 cells assessed as viable cells after 72 hrs by calcein AM assay; type: functional, cell-based; conditions: MCF7, 72 h
G-361 = test: Cytotoxicity against human G361 cells assessed as viable cells after 72 hrs by calcein AM assay; type: functional, cell-based; conditions: G-361, 72 h
HeLa = test: Cytotoxicity against human HeLa cells assessed as viable cells after 72 hrs by calcein AM assay; type: functional, cell-based
HOS = test: Cytotoxicity against human HOS cells assessed as viable cells after 72 hrs by calcein AM assay; type: functional, cell-based
A549 = test: Cytotoxicity against human A549 cells assessed as viable cells after 72 hrs by calcein AM assay; type: functional, cell-based; conditions: A549, 72 h
[1] = Cytotoxicity against human T98 cells assessed as viable cells after 72 hrs by calcein AM assay; type: functional, cell-based; conditions: T98, 72 h
HCT-116 = test: Cytotoxicity against human HCT116 assessed as viable cells after 72 hrs by calcein AM assay; type: functional, cell-based; conditions: HCT-116, 72 h
BJ = test: Cytotoxicity against human BJ cells assessed as viable cells after 72 hrs by calcein AM assay; type: cell-based

Row | Structure (SMILES) | IC50 (CCRF-CEM) [µM] | IC50 (MCF7) [µM] | IC50 (G-361) [µM] | IC50 (HeLa) [µM] | IC50 (HOS) [µM] | IC50 (A549) [µM] | IC50 [1] [µM] | IC50 (HCT-116) [µM] | IC50 (BJ) [µM]
1 | C=CCCCCC(=O)OC[C@@H](C)[C@@]1(O)[C@@H](O[C@@H]2OC[C@H](O)[C@H](O[C@@H]3OC[C@@H](O)[C@H](O)[C@H]3OC(=O)c3ccc(OC)cc3)[C@H]2OC(C)=O)C[C@H]2[C@@H]3CC=C4C[C@@H](O)CC[C@]4(C)[C@H]3CC[C@@]21C | 0.021 | 0.054 | 0.044 | 0.061 | 6.5 | 0.84 | 0.043 | 11 | 0.02
2 | CCCCCCC(=O)OC[C@@H](C)[C@@]1(O)[C@@H](O[C@@H]2OC[C@H](O)[C@H](O[C@@H]3OC[C@@H](O)[C@H](O)[C@H]3OC(=O)c3ccc(OC)cc3)[C@H]2OC(C)=O)C[C@H]2[C@@H]3CC=C4C[C@@H](O)CC[C@]4(C)[C@H]3CC[C@@]21C | 0.01 | 0.4 | 1.28 | 0.03 |  | 0.02 |  |  | 0.6
3 | COc1ccc(C(=O)O[C@H]2[C@H](O[C@@H]3[C@@H](OC(C)=O)[C@H](O[C@H]4C[C@H]5[C@@H]6CC=C7C[C@@H](O)CC[C@]7(C)[C@H]6CC[C@]5(C)[C@@]4(O)[C@H](C)COC(=O)c4ccccc4)OC[C@@H]3O)OC[C@@H](O)[C@@H]2O)cc1 | 0.07 | 0.7 | 1.66 |  |  | 0.17 |  |  | 0.1
4 | CCCCCCCCC(=O)OC[C@@H](C)[C@@]1(O)[C@@H](O[C@@H]2OC[C@H](O)[C@H](O[C@@H]3OC[C@@H](O)[C@H](O)[C@H]3OC(=O)c3ccc(OC)cc3)[C@H]2OC(C)=O)C[C@H]2[C@@H]3CC=C4C[C@@H](O)CC[C@]4(C)[C@H]3CC[C@@]21C | 0.0072 | 0.026 | 0.015 | 0.047 | 2.8 | 0.59 | 0.011 | 4.9 | 0.007
5 | CCCCC(=O)OC[C@@H](C)[C@@]1(O)[C@@H](O[C@@H]2OC[C@H](O)[C@H](O[C@@H]3OC[C@@H](O)[C@H](O)[C@H]3OC(=O)c3ccc(OC)cc3)[C@H]2OC(C)=O)C[C@H]2[C@@H]3CC=C4C[C@@H](O)CC[C@]4(C)[C@H]3CC[C@@]21C | 0.06 | 0.5 | 0.39 | 0.17 |  | 0.16 |  |  | 0.5
6 | CCCCCCCCCCCC(=O)OC[C@@H](C)[C@@]1(O)[C@@H](O[C@@H]2OC[C@H](O)[C@H](O[C@@H]3OC[C@@H](O)[C@H](O)[C@H]3OC(=O)c3ccc(OC)cc3)[C@H]2OC(C)=O)C[C@H]2[C@@H]3CC=C4C[C@@H](O)CC[C@]4(C)[C@H]3CC[C@@]21C | 0.0063 | 0.021 | 0.008 | 0.042 | 1.9 | 0.93 | 0.007 | 2.8 | 0.005
7 | CC(C)CCC(=O)[C@@H](C)[C@@]1(O)[C@@H](O)C[C@H]2[C@@H]3CC=C4C[C@@H](O)CC[C@]4(C)[C@H]3CC[C@@]21C | > 50 | > 50 | > 50 | > 50 | > 50 | > 50 | > 50 | > 50 | > 50
8 | CCCCCCCCCCCCCCCCCC(=O)OC[C@@H](C)[C@@]1(O)[C@@H](O[C@@H]2OC[C@H](O)[C@H](O[C@@H]3OC[C@@H](O)[C@H](O)[C@H]3OC(=O)c3ccc(OC)cc3)[C@H]2OC(C)=O)C[C@H]2[C@@H]3CC=C4C[C@@H](O)CC[C@]4(C)[C@H]3CC[C@@]21C | 0.058 | 0.195 | 0.3 | 0.435 | > 50 | 0.55 | 0.21 | > 50 | 0.08
9 | COc1ccc(C(=O)O[C@H]2[C@H](O[C@@H]3[C@@H](OC(C)=O)[C@H](O[C@H]4C[C@H]5[C@@H]6CC=C7C[C@@H](O)CC[C@]7(C)[C@H]6CC[C@]5(C)[C@@]4(O)[C@H](C)C(=O)CCC(C)C)OC[C@@H]3O)OC[C@@H](O)[C@@H]2O)cc1 | 0.0003 | 0.0024 | 1 | 0.0034 | 8.2 | 0.027 | 0.07 | 8.4 | 0.0002
10 | CCCCCCCCCCCCCC(=O)OC[C@@H](C)[C@@]1(O)[C@@H](O[C@@H]2OC[C@H](O)[C@H](O[C@@H]3OC[C@@H](O)[C@H](O)[C@H]3OC(=O)c3ccc(OC)cc3)[C@H]2OC(C)=O)C[C@H]2[C@@H]3CC=C4C[C@@H](O)CC[C@]4(C)[C@H]3CC[C@@]21C | 0.016 | 0.048 | 0.03 | 0.067 | 2.7 | 0.72 | 0.028 | 2.8 | 0.083
11 | COc1ccc(C(=O)O[C@H]2[C@H](O[C@@H]3[C@@H](OC(C)=O)[C@H](O[C@H]4C[C@H]5[C@@H]6CC=C7C[C@@H](O)CC[C@]7(C)[C@H]6CC[C@]5(C)[C@@]4(O)[C@H](C)COCc4ccccc4)OC[C@@H]3O)OC[C@@H](O)[C@@H]2O)cc1 | 0.02 | 0.6 | 0.75 | 0.2 |  | 0.1 |  |  | 0.3

From ChEMBL document CHEMBL1773000, “Synthesis and biological activity of 22-deoxo-23-oxa analogues of saponin OSW-1” (J Med Chem, 2011)
